# Paper PMC7354631 (Toxins, 2020)
# Read-outs that look alike come from different tables or passages of the source. Marks after values point to notes of the source that are not given here.
# Columns and labels:
# [1] = tested on: Sudlow’s site II of human serum albumin (HSA); details: cited from earlier work
# [2] = target: Sudlow’s site I of human serum albumin (HSA) (Homo sapiens, UniProt P02768); format: binding; details: for warfarin concentration in the filtrate (displacement from site I): pH 7.4
# Chain of Sudlow’s site I of human serum albumin (HSA) (P02768 25-609): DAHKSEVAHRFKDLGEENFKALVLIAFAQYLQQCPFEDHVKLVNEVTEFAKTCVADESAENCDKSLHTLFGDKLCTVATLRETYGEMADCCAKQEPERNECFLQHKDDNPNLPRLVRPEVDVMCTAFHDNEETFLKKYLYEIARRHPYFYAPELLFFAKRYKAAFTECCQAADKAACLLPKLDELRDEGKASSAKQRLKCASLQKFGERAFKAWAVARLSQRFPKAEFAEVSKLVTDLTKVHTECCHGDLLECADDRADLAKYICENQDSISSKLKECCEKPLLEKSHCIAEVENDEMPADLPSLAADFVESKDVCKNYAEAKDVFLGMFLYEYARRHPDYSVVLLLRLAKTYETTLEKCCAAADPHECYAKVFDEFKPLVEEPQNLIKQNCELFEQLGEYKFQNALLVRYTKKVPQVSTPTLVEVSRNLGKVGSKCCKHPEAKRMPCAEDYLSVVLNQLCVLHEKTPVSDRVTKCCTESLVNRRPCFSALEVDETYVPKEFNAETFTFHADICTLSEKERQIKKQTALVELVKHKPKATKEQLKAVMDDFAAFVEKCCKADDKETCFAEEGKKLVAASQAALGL
# [3] = tested on: HepG2 cells
# [4] = target: T1, human serum albumin (HSA) (Homo sapiens, UniProt P02768); details: cited from earlier work
# T1 sequence (P02768 25-609): as above
# [5] = target: T1, human serum albumin (HSA); format: binding
# [6] = target: T1, human serum albumin (HSA); assay: biochemical; format: binding
# [7] = target: T1, human serum albumin (HSA); assay: biochemical; format: binding; remark: listed apart in the source
# [8] = target: T1, human serum albumin (HSA); format: binding; remark: listed apart in the source
# [9] = tested on: bovine serum albumin; details: cited from earlier work
# [10] = Ka (±SEM) (Hyperquad, Figure 3)
# [11] = association constant of ochratoxin–HSA complex (approximate, summary)
compound,measurement,setting,value
"O=c1cc(-c2ccccc2)oc2c(O)c(O)ccc12 [7,8-dihydroxyflavone]",displacement of naproxen from HSA,[1],statistically significant displacement
"CC1=C[C@H]2O[C@@H]3[C@H](O)C[C@](C)([C@@]2(CO)[C@H](O)C1=O)[C@]31CO1 [DON, Deoxynivalenol]",warfarin concentration in the filtrate (displacement from site I),[2],did not alter
same,effect of 10% FBS on the mycotoxin-induced viability loss / toxic effect,[3],did not affect
same,effect of 40 g/L HSA on the toxic effect of the mycotoxin,[3],did not affect
same,association constant of the complex with HSA,[4],~46000 L/mol
same,quenching effect on HSA,[4],strong quenching effect
same,spectral position of the n–π* CD band in protein-free buffer vs. high molar excess of HSA,[5]; pH 7.4,practically the same
same,effect on the fluorescence emission of HSA,[6],did not modify
"C[C@@H]1Cc2ccc(C(=O)N[C@@H](Cc3ccccc3)C(=O)O)c(O)c2C(=O)O1 [OTB, ochratoxin B]",location of the high-affinity binding site on HSA,[2],subdomain IIA
same,warfarin concentration in the filtrate (displacement from site I),[2],significantly increased
same,HSA concentration enough to achieve complete albumin binding,[7],5 to 7 µM
same,emission signal of the ochratoxin with elevation of HSA concentration,[7],significantly increased
same,Kd,[7]; [10],725 nM
same,Kd,[7]; [11],~1000 nM
same,effect of 10% FBS on the mycotoxin-induced viability loss / toxic effect,[3],significantly reduced
same,effect of the mycotoxin on cellular ATP levels in the presence of 40 g/L HSA,[3],did not affect
same,relative cytotoxicity,[3],considerably lower toxicity than OTC
same,fluorescence anisotropy in the presence of HSA,[8],strongly increased
same,effect on the emission signal of HSA at 340 nm,[6],decreased
same,"KSV (±SEM) (Stern–Volmer Plot, Figure 2)",[6]; pH 7.4,0.57 ± 0.05 ×10^6 L/mol
"CCOC(=O)[C@H](Cc1ccccc1)NC(=O)c1cc(Cl)c2c(c1O)C(=O)O[C@H](C)C2 [OTC, ochratoxin C]",location of the high-affinity binding site on HSA,[2],subdomain IIA
same,warfarin concentration in the filtrate (displacement from site I),[2],significantly increased
same,HSA concentration enough to achieve complete albumin binding,[7],2 to 3 µM
same,emission signal of the ochratoxin with elevation of HSA concentration,[7],significantly increased
same,Kd,[7]; [10],62.4 nM
same,Kd,[7]; [11],~100 nM
same,effect of 10% FBS on the mycotoxin-induced viability loss / toxic effect,[3],abolished
same,effect of the mycotoxin on cellular ATP levels in the presence of 40 g/L HSA,[3],did not affect
same,fluorescence anisotropy in the presence of HSA,[8],strongly increased
same,effect on the emission signal of HSA at 340 nm,[6],decreased
same,"KSV (±SEM) (Stern–Volmer Plot, Figure 2)",[6]; pH 7.4,0.46 ± 0.06 ×10^6 L/mol
"O=C1C=C2C(=CCOC2O)O1 (centres unmarked) [PAT, Patulin]",warfarin concentration in the filtrate (displacement from site I),[2],did not alter
same,effect of 10% FBS on the mycotoxin-induced viability loss / toxic effect,[3],did not affect
same,effect of 40 g/L HSA on the toxic effect of the mycotoxin,[3],did not affect
same,KSV of the complex with HSA,[4],14000 L/mol
same,induced CD features on HSA binding,[5],no induced CD features were observed
same,UV spectral changes in the presence of HSA,[5]; pH 7.4,some UV spectral changes could be noticed
same,Kd,[6],72500 nM
same,effect on the fluorescence emission of HSA,[6],slightly decreased
same,KSV (Stern–Volmer quenching constant),[6]; pH 7.4,8.23 × 10^3 (±1.12 × 10^3) L/mol
same,interaction with bovine serum albumin,[9],weak interaction
"CC(=O)OC[C@]12C[C@H](OC(=O)CC(C)C)C(C)=C[C@H]1O[C@@H]1[C@H](O)[C@@H](OC(C)=O)[C@@]2(C)[C@]12CO2 [T2, T-2 toxin]",warfarin concentration in the filtrate (displacement from site I),[2],did not alter
same,effect of 10% FBS on the mycotoxin-induced viability loss / toxic effect,[3],did not affect
same,effect of 40 g/L HSA on the toxic effect of the mycotoxin,[3],did not affect
same,relative cytotoxicity,[3],considerably higher compared to PAT or DON
same,difference of far-UV CD curves of free HSA and HSA+toxin (secondary structure),[5],no significant difference
same,modification of the near-UV CD spectrum of HSA (245–340 nm),[5],unambiguous and relevant spectral modifications could not be registered
same,effect on the fluorescence emission of HSA,[6],did not modify
"Cc1cc(O)cc2oc(=O)c3c(O)cc(O)cc3c12 [alternariol, reference compound]",Ka of the complex with HSA,[4],400000 L/mol
O=c1cc(-c2ccccc2)oc2cc(OS(=O)(=O)O)cc(O)c12 [chrysin-7-sulfate],displacement of naproxen from HSA,[1],statistically significant displacement
O=c1cc(-c2ccccc2)oc2cc(O)cc(O)c12 [chrysin],displacement of naproxen from HSA,[1],statistically significant displacement
"CC1=C2C(=CO[C@H](C)[C@H]2C)C(O)=C(C(=O)O)C1=O [citrinin, reference compound]",Ka of the complex with HSA,[4],200000 L/mol
"C[C@H]1CCCC(=O)CCC/C=C/c2cc(O)cc(O)c2C(=O)O1 [zearalenone, reference compound]",Ka of the complex with HSA,[4],120000 L/mol
